The record followed here is US7030158B2, “Therapeutic compounds” (Ardenia Investments Ltd., priority 2002, dated 2006).

Each structure is given as a SMILES string.

One series relates to rats. The following applies: rat, in vivo, ip, 100 mg/kg.
Series [1] has as its system Human Breast Adenocarcinoma Cell Line MDA-MB-231. The series can be described thus: Drug cytotoxicity testing (viable cell count, trypan blue exclusion) in MDA-MB-231 cultures. In kind it is cell-based. The note with it: for Tumor Cell Number: compound or drug alone 10^−7 mol/L (100 nM), medium with 5% FBS. The method, then:
MDA-MB-231 cells were propagated in MEM culture medium with 2 mM L-glutamine, 10% heat-inactivated fetal bovine serum (FBS) and antibiotics. DU 145 cells were cultured in MEM culture medium containing 2 mM L-glutamine, 1 mM sodium pyruvate, 10% FBS and antibiotics. SKOV-3 cells were cultured in McCoy's 5A culture medium, supplemented with 1,5 mM L-glutamine, 10% FBS and antibiotics. A549 cells were cultured in Ham's F-12 culture medium with 1 mM L-glutamine, 10% FBS and antibiotics.
The cell cultures in cultivation plates were allowed to adhere for 24 hour of incubation. […] The cells were incubated for 2 consecutive days. At the end of the incubation period adherent cells were detached by trypsinization and the number of viable cells was counted using trypan blue exclusion test and a hemocytometer. All data were derived from an average of three determinations each in six replicates. The results were expressed as mean cell number±SE and the differences between control and test series evaluated by means of Student's t-test. The drug cytotoxicity was evaluated based on the extent of cell growth inhibition.
Therefore an average of negative controls was calculated. […] Therefore an average of positive controls was calculated (for each antibiotic).

Method for rats: A single dose i.p. toxicity study in rats was carried out. […] The minimal lethal dose is thus above 100 mg/kg body weight for these compounds.

As to `CC1=C(/C=C/C(C)=C/C=C/C(C)=C/C(=O)N[C@@H](CS(=O)O)C(=O)O)C(C)(C)CCC1` (stereo in doubt) [I-2, N-(all-trans-Retinoyl)-L-cysteinesulfinic acid], the mortality entry with rats is on record as “did not produce mortality”.

Take `CC1=C(/C=C/C(C)=C/C=C/C(C)=C/C(=O)N[C@@H](CS(=O)(=O)O)C(=O)O)C(C)(C)CCC1` [I-1, N-(all-trans-Retinoyl)-L-cysteic acid]: the mortality entry with rats is given as “did not produce mortality”.

Regarding `COC(=O)[C@H](CCS(=O)(=O)O)NC(=O)/C=C(C)/C=C/C=C(C)/C=C/C1=C(C)CCCC1(C)C` [I-3a], the “cell growth inhibition achieved when increasing the concentration” value in series [1] (compound (sodium salt) alone, concentration range 10^−9 to 10^−7 M, listed as II-3a) is ~49%.

Turning to `CC1=C(/C=C/C(C)=C/C=C/C(C)=C\C(=O)N[C@@H](CS(=O)(=O)O)C(=O)OC(C)C)C(C)(C)CCC1` [II-1c], the “Tumor Cell Number” value in series [1] is listed as 29.0 ± 1.26 × 10^3.

For `CCCCOC(=O)[C@H](CS(=O)(=O)O)NC(=O)\C=C(C)/C=C/C=C(C)/C=C/C1=C(C)CCCC1(C)C` [II-1e], in series [1], the “Tumor Cell Number” value was “(26.0 ± 1.27) × 10^3, cell growth inhibition”.

`CC1=C(/C=C/C(C)=C/C=C/C(C)=C\C(=O)N[C@@H](CCS(=O)(=O)O)C(=O)O)C(C)(C)CCC1` [II-3, N-(13-cis-Retinoyl)-L-homocysteic acid]: the mortality result with rats was “did not produce mortality”.
